Test results: patent US20040152672A1, “Indole compounds useful for the treatment of cancer” (priority 2000, published 2004)
Like-named read-outs stand apart in the source and are kept apart here. Residues, ends and D or L forms follow the SMILES beside them. *: point of attachment. Cbz = O=C(OCc1ccccc1)*; CH2F = FC*

Experiments:
A549 [1] = test system: A549
HCT-116 [2] = test system: HCT-116
HCT-116 [3] = assay: Cytotoxicity by MTT assay, confirmed by FACS propidium iodide uptake
A549 [4] = assay: as above
LNCaP-FGC [5] = assay: as above
MDA-MB-231 [6] = assay: as above
CLL cells [7] = assay: In vitro survival of CLL cells taken from patients before and after etodolac tablets; assay type: in vivo, human; conditions: patient two
Method: Heparinized blood was taken from two patients ([…]) with CLL. Then each patient immediately took a 400 mg etodolac tablet, and a second tablet 12 hours later. After another 12 hours, a second blood specimen was obtained. The CLL cells were isolated and their survival in vitro were compared in RPMI 1640 medium containing 10% autologous plasma, as described in Example 1. The circles show CLL cells before etodolac treatment. In FIGS. 6-7, the upward pointing triangles represent CLL cell viability after etodolac treatment, wherein the cells are dispersed in medium containing the pre-treatment plasma. The downward pointing triangles are CLL cells after treatment maintained in medium with the post-treatment plasma.
FIG. 8 is a flow cytometric analysis of CLL cells from patient two before and after etodolac treatment. […]
To conduct the flow cytometric analysis, the mitochondrial transmembrane potential was analyzed by 3,3′ dihexyloxacarboncyanide iodide (DiOC6), cell membrane permeability by propidium iodide (PI)3 and mitochondrial respiration by dihydrorhodamine 123 (DHR) (See J. A. Royall et al., Arch. Biochem. Biophys., 302, 348 (1993)). […] Cells were analyzed within 30 minutes in a Becton Dickinson FAC-Scalibur cytofluorometer. After suitable […], fluorescence was recorded at different wavelength: DiOC6 and DHR at 525 nm (Fl-1) and PI at 600 nm (FL-3).

Bag-1 = Bag-1 level in LNCaP cells by SDS-PAGE immunoblot; conditions: for effect on the etodolac-induced fall in Bag-1 levels: co- or pre-incubation with etodolac, MG-132 at 5.0 μM
OVCAR-3 [8] = assay: Cytotoxicity by MTT assay, confirmed by FACS propidium iodide uptake
Bcl-2 and Bax = Bcl-2 and Bax levels in LNCaP cells; conditions: etodolac incubation; data not shown
MDA-MB-231 [9] = test system: MDA-MB-231
PC-3 [10] = assay: Cytotoxicity by MTT assay, confirmed by FACS propidium iodide uptake
CLL cells [11] = assay: Viability of CLL cells in culture, erythrocin B exclusion assay; assay type: cell-based, human; conditions: for killing of CLL cells by either drug alone: fludarabine 10 nM or etodolac 10 μM alone, 48 hours, FIG. 3
Alva-31 [12] = assay: Cytotoxicity by MTT assay, confirmed by FACS propidium iodide uptake
[13] = cited from earlier work
[14] = test system: normal peripheral blood lymphocytes (PBL); assay: Viability of normal PBLs, erythrocin B exclusion assay; assay type: cell-based, human; conditions: FIG. 1; only at this concentration
OVCAR-3 [15] = test system: OVCAR-3
Mcl-1 = Mcl-1 level in LNCaP cells by SDS-PAGE immunoblot; conditions: for effect on the etodolac-induced fall in Mcl-1 levels: co- or pre-incubation with etodolac, MG-132 at 5.0 μM
normal B cells = assay: Viability of normal B lymphocytes (anti-CD19) by DiOC6 fluorescence; assay type: cell-based, human; conditions: 1.0 mM etodolac, 24 hours
Method: Peripheral blood lymphocytes from a normal donor were cultured with 1.0 mM etodolac for 24 hours. Then B lymphocytes were identified by staining with anti-CD19 antibody, and viability was assessed by DiOC6 fluorescence. […] When the same viability assay was run with purified CLL cells from the peripheral blood of a CLL patient, the results were different. […] More than 95% of the treated cells were malignant B lymphocytes.

PC-3 [16] = test system: PC-3
Alva-31 [17] = test system: Alva-31
LNCaP-FGC [18] = test system: LNCaP-FGC
adjuvant polyarthritis = conditions: reduction in paw volume of rats with adjuvant polyarthritis, prostaglandin synthetase inhibitory activity; Demerson et al.; cited from earlier work
PPAR-γ = PPAR-γ (Mus musculus, UniProt P37238); conditions: RAW264.7, 24 hours; concentrations readily achieved in human plasma; FIG. 13
Chain of PPAR-γ (P37238 31-505 limits assumed): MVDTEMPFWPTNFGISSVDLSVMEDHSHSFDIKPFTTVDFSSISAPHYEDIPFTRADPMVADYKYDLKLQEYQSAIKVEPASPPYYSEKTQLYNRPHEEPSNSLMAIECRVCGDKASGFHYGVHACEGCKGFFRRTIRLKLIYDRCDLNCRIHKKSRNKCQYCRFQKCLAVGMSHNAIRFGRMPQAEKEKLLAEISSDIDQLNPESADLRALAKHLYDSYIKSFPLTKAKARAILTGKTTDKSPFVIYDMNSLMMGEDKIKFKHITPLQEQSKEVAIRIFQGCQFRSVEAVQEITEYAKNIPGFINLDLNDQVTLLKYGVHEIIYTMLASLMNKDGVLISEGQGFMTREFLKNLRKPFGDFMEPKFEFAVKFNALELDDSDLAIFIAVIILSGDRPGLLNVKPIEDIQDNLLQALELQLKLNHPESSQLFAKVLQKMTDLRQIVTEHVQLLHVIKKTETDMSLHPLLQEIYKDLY

[19] = in vivo
MRP = MRP (Homo sapiens, UniProt P33527); conditions: WO98/18490; cited from earlier work
Chain of MRP (P33527 whole entry): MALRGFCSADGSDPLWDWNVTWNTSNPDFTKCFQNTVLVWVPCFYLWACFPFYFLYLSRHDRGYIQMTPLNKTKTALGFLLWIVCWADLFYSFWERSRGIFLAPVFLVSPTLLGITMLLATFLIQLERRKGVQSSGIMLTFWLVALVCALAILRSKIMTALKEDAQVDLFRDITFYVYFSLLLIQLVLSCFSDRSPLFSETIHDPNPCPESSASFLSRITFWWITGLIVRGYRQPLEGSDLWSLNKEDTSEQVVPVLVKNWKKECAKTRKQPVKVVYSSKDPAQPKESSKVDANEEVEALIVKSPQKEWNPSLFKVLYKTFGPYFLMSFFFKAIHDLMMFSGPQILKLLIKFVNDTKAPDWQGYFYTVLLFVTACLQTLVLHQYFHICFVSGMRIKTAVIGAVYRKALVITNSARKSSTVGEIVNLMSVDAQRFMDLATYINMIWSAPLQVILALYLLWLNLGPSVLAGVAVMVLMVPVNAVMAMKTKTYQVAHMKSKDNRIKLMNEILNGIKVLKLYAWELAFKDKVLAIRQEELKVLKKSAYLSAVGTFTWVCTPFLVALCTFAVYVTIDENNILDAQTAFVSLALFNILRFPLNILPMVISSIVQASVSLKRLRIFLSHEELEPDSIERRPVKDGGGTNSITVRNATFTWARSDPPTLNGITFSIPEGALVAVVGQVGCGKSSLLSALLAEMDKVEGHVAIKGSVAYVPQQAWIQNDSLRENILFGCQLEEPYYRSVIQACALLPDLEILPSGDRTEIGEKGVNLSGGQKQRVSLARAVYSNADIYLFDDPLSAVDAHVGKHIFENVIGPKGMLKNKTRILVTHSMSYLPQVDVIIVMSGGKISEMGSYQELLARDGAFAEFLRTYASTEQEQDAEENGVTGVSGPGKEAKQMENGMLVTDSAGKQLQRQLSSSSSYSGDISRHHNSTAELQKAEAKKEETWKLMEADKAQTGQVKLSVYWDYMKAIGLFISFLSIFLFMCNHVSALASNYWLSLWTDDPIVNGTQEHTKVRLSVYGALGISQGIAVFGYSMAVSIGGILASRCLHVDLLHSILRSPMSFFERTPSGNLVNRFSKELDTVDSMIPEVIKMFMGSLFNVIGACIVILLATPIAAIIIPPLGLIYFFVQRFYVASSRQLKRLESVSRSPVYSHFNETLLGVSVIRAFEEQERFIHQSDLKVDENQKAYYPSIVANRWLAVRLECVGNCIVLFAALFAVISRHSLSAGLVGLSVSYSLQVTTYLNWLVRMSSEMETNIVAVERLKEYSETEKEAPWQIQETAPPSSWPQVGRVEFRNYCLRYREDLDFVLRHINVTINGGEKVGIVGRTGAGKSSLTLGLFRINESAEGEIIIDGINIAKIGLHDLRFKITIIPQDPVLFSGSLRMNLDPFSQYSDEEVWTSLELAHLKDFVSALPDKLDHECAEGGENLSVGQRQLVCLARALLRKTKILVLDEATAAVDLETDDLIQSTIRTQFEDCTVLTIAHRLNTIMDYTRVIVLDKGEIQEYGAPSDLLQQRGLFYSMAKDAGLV

prostate cancer = conditions: TRAMP mouse; Wechter et al. 2000; cited from earlier work
B-cell CLL cells = conditions: Bellosillo et al., Blood 1998; cited from earlier work
[20] = 100 μM etodolac, as early as two hours

Source text for prostate cancer tissue: The tissues were next fixed in 4% paraformaldehyde in PBS, embedded in paraffin, sectioned and stained with hematoxylin and eosin.

SMILES: CCc1cccc2c3c([nH]c12)C(CC)(CC(=O)O)OCC3 (stereo not drawn) [Etodolac R/S, 1,8-diethyl-1,3,4,9-tetrahydro[3,4-6]indole-1-acetic acid]
- IC50 (A549 [1]): > 1000 µM
- IC50 (HCT-116 [2]): 450 ± 15 µM
- Phenoty (HCT-116 [3]; HCT-116, sensitivity of the cell line to etodolac): Sensitive
- Phenoty (A549 [4]; A549, sensitivity of the cell line to etodolac): Resistant
- Phenoty (LNCaP-FGC [5]; LNCaP-FGC, sensitivity of the cell line to etodolac): Sensitive
- Phenoty (MDA-MB-231 [6]; MDA-MB-231, sensitivity of the cell line to etodolac): Resistant
- apoptotic CLL cells (low DiOC6 staining, left lower box) after versus before treatment (CLL cells [7]; flow cytometry, detectable at 12 hours, increases after 24 hours, FIG. 8): much higher after the drug
- in vitro survival of CLL cells after treatment compared to before treatment (CLL cells [7]; two 400 mg tablets 12 hours apart, FIG. 6): shortened survival
- IC50 (SW260): 1000 ± 120 µM
- Phenoty (SW260; SW260, sensitivity of the cell line to etodolac): Resistant
- Bag-1 levels (Bag-1; [20]): fell
- Phenoty (OVCAR-3 [8]; OVCAR-3, sensitivity of the cell line to etodolac): Resistant
- Bcl-2 and Bax levels (Bcl-2 and Bax): did not alter
- IC50 (MDA-MB-231 [9]): > 1000 µM
- Phenoty (PC-3 [10]; PC-3, sensitivity of the cell line to etodolac): Sensitive
- CLL cells killed (CLL cells [11]; 200 μM, 48 hour exposure, FIG. 2): 50%
- killing of CLL cells by either drug alone (CLL cells [11]): ineffective
- Phenoty (Alva-31 [12]; Alva-31, sensitivity of the cell line to etodolac): Resistant
- elimination half-life ([13]; in vivo): 6 to 8 h
- concentration at which significant death of normal PBLs occurred [14]: 800 µM
- IC50 (OVCAR-3 [15]): > 1000 µM
- Mcl-1 levels (Mcl-1; [20]): fell
- effect on normal basal cells in prostatectomy samples (prostate cancer tissue): did not affect
- viability of normal B cells compared to control cultures (normal B cells): did not reduce the viability
- IC50 (PC-3 [16]): 340 ± 20 µM
- IC50 (Alva-31 [17]): > 1000 µM
- IC50 (LNCaP-FGC [18]): 400 ± 35 µM

SMILES: CCc1cccc2c3c([nH]c12)[C@@](CC)(CC(=O)O)OCC3 [Etodolac R]
- IC50 (HCT-116 [3]; read-out: IC50 cytotoxicity, HCT-116 (colon), MTT after three days continuous exposure): 280 ± 20 µM
- IC50 (A549 [4]; read-out: IC50 cytotoxicity, A549 (lung), MTT after three days continuous exposure): > 1000 µM
- anti-inflammatory activity (adjuvant polyarthritis): No anti-inflammatory activity was discernible
- IC50 (LNCaP-FGC [5]; read-out: IC50 cytotoxicity, LNCaP-FGC (prostate), MTT after three days continuous exposure): 270 ± 50 µM
- IC50 (MDA-MB-231 [6]; read-out: IC50 cytotoxicity, MDA-MB-231 (breast), MTT after three days continuous exposure): > 1000 µM
- IC50 (OVCAR-3 [8]; read-out: IC50 cytotoxicity, OVCAR-3 (ovarian), MTT after three days continuous exposure): > 1000 µM
- IC50 (PC-3 [10]; read-out: IC50 cytotoxicity, PC-3 (prostate), MTT after three days continuous exposure): 150 ± 15 µM
- IC50 (Alva-31 [12]; read-out: IC50 cytotoxicity, Alva-31 (prostate), MTT after three days continuous exposure): > 1000 µM
- maximum plasma concentration ([13]; after a 200 mg dose in six elderly patients): about 33 μM
- plasma concentrations, fold higher than those of the S-enantiomer ([13]; after the administration of RS-etodolac): about 10 fold
- Mcl-1 degradation by the enantiomers (Mcl-1): induced Mcl-1 degradation at equivalent concentrations
- activation of PPAR-γ reporter gene construct (PPAR-γ): activated
- maximal plasma concentration in a human subject (should yield) [19]: about 400 μM

SMILES: CCc1cccc2c3c([nH]c12)C(CC)(CC(=O)O)OCC3 (stereo not drawn) [Etodolac S]
- IC50 (A549 [1]): > 1000 µM
- IC50 (HCT-116 [2]): 420 ± 50 µM
- anti-inflammatory activity (adjuvant polyarthritis): almost all of the anti-inflammatory activity of the racemate
- IC50 (MDA-MB-231 [9]): > 1000 µM
- IC50 (OVCAR-3 [15]): > 1000 µM
- Mcl-1 degradation by the enantiomers (Mcl-1): induced Mcl-1 degradation at equivalent concentrations
- activation of PPAR-γ reporter gene construct (PPAR-γ): activated
- IC50 (PC-3 [16]): 800 µM
- IC50 (Alva-31 [17]): > 1000 µM
- IC50 (LNCaP-FGC [18]): 220 ± 20 µM

SMILES: CC(C)C[C@@H](C=O)NC(=O)[C@H](CC(C)C)NC(=O)[C@H](CC(C)C)NC(=O)OCc1ccccc1 [MG-132] (Cbz-Leu-Leu-Leu-aldehyde)
- effect on the etodolac-induced fall in Bag-1 levels (Bag-1): prevented
- effect on the etodolac-induced fall in Mcl-1 levels (Mcl-1): prevented

SMILES: COc1ccc2cc([C@H](C)C(=O)O)ccc2c1 [Naproxen]
- increase of the potency of the anti-cancer drug (MRP): inactive

SMILES: C[C@@H](C(=O)O)c1ccc(-c2ccccc2)c(F)c1 [R-flurbiprofen]
- progression of prostate cancer (prostate cancer): inhibited progression of prostate cancer

SMILES: CC(NC(=O)C(NC(=O)OCc1ccccc1)C(C)C)C(=O)NC(CC(=O)O)C(=O)CF (stereo not drawn) [Z-VAD] (Cbz-Val-Ala-Asp-CH2F; configuration not given here)
- effect on the etodolac-induced fall in Bag-1 levels (Bag-1): did not prevent
- effect on the etodolac-induced fall in Mcl-1 levels (Mcl-1): did not prevent

SMILES: CC(=O)Oc1ccccc1C(=O)O [aspirin]
- viability of B-cell CLL cells in vitro (B-cell CLL cells): reduced the viability

SMILES: Nc1nc(F)nc2c1ncn2[C@@H]1O[C@H](CO)[C@@H](O)[C@@H]1O [fludarabine]
- killing of CLL cells by either drug alone (CLL cells [11]): ineffective

SMILES: CN1C(C(=O)Nc2ccccn2)=C(O)c2ccccc2S1(=O)=O [piroxicam]
- increase of the potency of the anti-cancer drug (MRP): inactive

SMILES: O=C(O)c1ccccc1O [salicylate]
- viability of B-cell CLL cells in vitro (B-cell CLL cells): reduced the viability
